Experiments:
Type in all cases: in vivo
[1] = tested on: common chickweed (Stellaria media); test: Preemergence herbicidal activity, chickweed; details: Rate of Application 0.3 Kg/Ha, examined after 12-17 days
[2] = tested on: wheat (Triticum aestivum var. Lew); test: Preemergence herbicidal activity, wheat; details: Rate of Application 0.3 Kg/Ha, examined after 12-17 days
[3] = tested on: Johnsongrass (Sorghum halepense); test: Postemergence herbicidal activity, johnsongrass; details: rate of application 0.3 Kg/Ha, rated after 12-17 days
[4] = tested on: morningglory (Ipomea lacunosa or Ipomea hederacea); test: Postemergence herbicidal activity, morningglory; details: rate of application 0.3 Kg/Ha, rated after 12-17 days
[5] = tested on: Johnsongrass (Sorghum halepense); test: Preemergence herbicidal activity, johnsongrass; details: Rate of Application 0.3 Kg/Ha, examined after 12-17 days
[6] = tested on: field corn (Zea mays var. Pioneer 3732); test: Preemergence herbicidal activity, corn; details: Rate of Application 0.3 Kg/Ha, examined after 12-17 days
[7] = tested on: soybean (Glycine max var. Winchester); test: Postemergence herbicidal activity, soybean; details: rate of application 0.3 Kg/Ha, rated after 12-17 days
[8] = tested on: morningglory (Ipomea lacunosa or Ipomea hederacea); test: Preemergence herbicidal activity, morningglory; details: Rate of Application 0.3 Kg/Ha, examined after 12-17 days
[9] = tested on: soybean (Glycine max var. Winchester); test: Preemergence herbicidal activity, soybean; details: Rate of Application 0.3 Kg/Ha, examined after 12-17 days
[10] = tested on: common cocklebur (Xanthium strumarium L.); test: Preemergence herbicidal activity, cocklebur; details: Rate of Application 0.3 Kg/Ha, examined after 12-17 days
[11] = tested on: velvetleaf (Abutilon theophrasti); test: Preemergence herbicidal activity, velvetleaf; details: Rate of Application 0.3 Kg/Ha, examined after 12-17 days
[12] = tested on: field corn (Zea mays var. Pioneer 3732); test: Postemergence herbicidal activity, corn; details: rate of application 0.3 Kg/Ha, rated after 12-17 days
[13] = tested on: green foxtail (Setaria viridis); test: Preemergence herbicidal activity, green foxtail; details: Rate of Application 0.3 Kg/Ha, examined after 12-17 days
[14] = tested on: green foxtail (Setaria viridis); test: Postemergence herbicidal activity, green foxtail; details: rate of application 0.3 Kg/Ha, rated after 12-17 days
[15] = tested on: velvetleaf (Abutilon theophrasti); test: Postemergence herbicidal activity, velvetleaf; details: rate of application 0.3 Kg/Ha, rated after 12-17 days
[16] = tested on: blackgrass (Aloepecurus myosuroides); test: Preemergence herbicidal activity, blackgrass; details: Rate of Application 0.3 Kg/Ha, examined after 12-17 days
[17] = tested on: blackgrass (Aloepecurus myosuroides); test: Postemergence herbicidal activity, blackgrass; details: rate of application 0.3 Kg/Ha, rated after 12-17 days
Description: The benzofused heterocyclic compounds of this invention were tested for pre- and postemergence herbicidal activity using a variety of crops and weeds. The test plants included soybean (Glycine max var. Winchester), field corn (Zea mays var. Pioneer 3732), wheat (Triticum aestivum var. Lew), morningglory (Ipomea lacunosa or Ipomea hederacea), velvetleaf (Abutilon theophrasti), green foxtail (Setaria viridis), Johnsongrass (Sorghum halepense), blackgrass (Aloepecurus myosuroides), common chickweed (Stellaria media), and common cocklebur (Xanthium strumarium L.).
For preemergence testing, two disposable fiber flats (8 cm×15 cm×25 cm) for each rate of application of each candidate herbicide were filled to an approximate depth of 6.5 cm with steam-sterilized sandy loam soil. The soil was leveled and impressed with a template to provide five evenly spaced furrows 13 cm long and 0.5 cm deep in each flat. Seeds of soybean, wheat, corn, green foxtail, and johnsongrass were planted in the furrows of the first flat, and seeds of velvetleaf, morningglory, common chickweed, cocklebur, and blackgrass were planted in the furrows of the second flat. The five-row template was employed to firmly press the seeds into place. A topping soil of equal portions of sand and sandy loam soil was placed uniformly on top of each flat to a depth of approximately 0.5 cm. Flats for postemergence testing were prepared in the same manner except that they were planted 9-14 days prior to the preemergence flats and were placed in a greenhouse and watered, thus allowing the seeds to germinate and the foliage to develop.
In both pre- and postemergence tests, a stock solution of the candidate herbicide was prepared by dissolving 0.27 g of the compound in 20 mL of water/acetone (50/50) containing 0.5% v/v sorbitan monolaurate. For an application rate of 3000 g/ha of herbicide a 10 mL portion of the stock solution was diluted with water/acetone (50/50) to 45 mL.
The preemergence flats were initially subjected to a light water spray. The four flats were placed two by two along a conveyor belt (i.e., the two preemergence followed by the two postemergence flats). The conveyor belt fed under a spray nozzle mounted about ten inches above the post-emergent foliage. The preemergent flats were elevated on the belt so that the soil surface was at the same level below the spray nozzle as the foliage canopy of the postemergent plants. The spray of herbicidal solution was commenced and once stabilized, the flats were passed under the spray at a speed to receive a coverage equivalent of 100 L/ha. At this coverage the application rates are those shown in the above table for the individual herbicidal solutions. The preemergence flats were watered immediately thereafter, placed in the greenhouse and watered regularly at the soil surface. The postemergence flats were immediately placed in the green-house and not watered until 24 hours after treatment with the test solution. Thereafter they were regularly watered at ground level. After 12-17 days the plants were examined and the phytotoxicity data were recorded.
Phytotoxicity data were taken as percent control. Percent control was determined by a method similar to the 0 to 100 rating system disclosed in “Research Methods in Weed Science,” 2nd ed., B. Truelove, Ed.; Southern Weed Science Society; Auburn University, Auburn, Ala., 1977.

[18] = tested on: wheat (Triticum aestivum var. Lew); test: Postemergence herbicidal activity, wheat; details: rate of application 0.3 Kg/Ha, rated after 12-17 days
[19] = tested on: common cocklebur (Xanthium strumarium L.); test: Postemergence herbicidal activity, cocklebur; details: rate of application 0.3 Kg/Ha, rated after 12-17 days
[20] = tested on: common chickweed (Stellaria media); test: Postemergence herbicidal activity, chickweed; details: rate of application 0.3 Kg/Ha, rated after 12-17 days

| Structure (SMILES) | PREEMERGENCE HERBICIDAL ACTIVITY (% CONTROL) STEME [1] [%] | PREEMERGENCE HERBICIDAL ACTIVITY (% CONTROL) WHT [2] [%] | Postemergence herbicidal activity (% control) SORHA [3] [%] | Postemergence herbicidal activity (% control) IPOSS [4] [%] | PREEMERGENCE HERBICIDAL ACTIVITY (% CONTROL) SORHA [5] [%] | PREEMERGENCE HERBICIDAL ACTIVITY (% CONTROL) CRN [6] [%] | Postemergence herbicidal activity (% control) SOY [7] [%] | PREEMERGENCE HERBICIDAL ACTIVITY (% CONTROL) IPOSS [8] [%] | PREEMERGENCE HERBICIDAL ACTIVITY (% CONTROL) SOY [9] [%] | PREEMERGENCE HERBICIDAL ACTIVITY (% CONTROL) XANPE [10] [%] | PREEMERGENCE HERBICIDAL ACTIVITY (% CONTROL) ABUTH [11] [%] | Postemergence herbicidal activity (% control) CRN [12] [%] | PREEMERGENCE HERBICIDAL ACTIVITY (% CONTROL) SETVI [13] [%] | Postemergence herbicidal activity (% control) SETVI [14] [%] | Postemergence herbicidal activity (% control) ABUTH [15] [%] | PREEMERGENCE HERBICIDAL ACTIVITY (% CONTROL) ALOMY [16] [%] | Postemergence herbicidal activity (% control) ALOMY [17] [%] | Postemergence herbicidal activity (% control) WHT [18] [%] | Postemergence herbicidal activity (% control) XANPE [19] [%] | Postemergence herbicidal activity (% control) STEME [20] [%] |
| --- | --- | --- | --- | --- | --- | --- | --- | --- | --- | --- | --- | --- | --- | --- | --- | --- | --- | --- | --- | --- |
| C#CCOc1nc2c(-n3c(=O)cc(C(F)(F)F)n(C)c3=O)c(F)cc(Br)c2o1 [Compound 106] | 95 | 40 | 70 | 100 | 55 | 70 | 80 | 100 | 30 | 60 | 100 | 75 | 90 | 100 | 100 | 70 | 60 | 30 | – | – |
| Cn1c(C(F)(F)F)cc(=O)n(-c2c(F)cc(Cl)c3nc(Cc4ccc(Cl)cc4)[nH]c23)c1=O [Compound 383] | – | 40 | 70 | 95 | 55 | 20 | 95 | 60 | 80 | 70 | 100 | 95 | 75 | 95 | 100 | 80 | 60 | 40 | 100 | – |
| Cn1c(C(F)(F)F)cc(=O)n(-c2c(F)cc(Br)c3oc(COc4ccc(Cl)cc4)nc23)c1=O [Compound 102] | – | 30 | 60 | 100 | 60 | 10 | 80 | 70 | 20 | 50 | 100 | 75 | 100 | 90 | 100 | 90 | 60 | 30 | – | – |
| Cn1c(C(F)(F)F)cc(=O)n(-c2c(F)cc(Cl)c3nc(CCCc4ccccc4)[nH]c23)c1=O [Compound 380] | – | 35 | 80 | 100 | 70 | 20 | 95 | 100 | 80 | 80 | 100 | 95 | 100 | 100 | 100 | 90 | 70 | 30 | 100 | – |
| CC(OC(=O)c1ccccc1)c1cc2c(Cl)cc(F)c(-n3c(=O)cc(C(F)(F)F)n(C)c3=O)c2o1 (stereo not drawn) [Compound 248] | 100 | 90 | 100 | 100 | 100 | 95 | 80 | 100 | 100 | 100 | 100 | 95 | 100 | 100 | 100 | 95 | – | 50 | 100 | 100 |
| CC(=O)OC(C)(C)c1nc2c(-n3c(=O)cc(C(F)(F)F)n(C)c3=O)c(F)cc(Cl)c2[nH]1 [Compound 371] | 100 | 95 | 100 | 100 | 100 | 100 | 95 | 100 | 100 | 100 | 100 | 100 | 100 | 100 | 100 | 100 | – | 100 | 100 | 100 |
| CC(=O)OCc1nc2c(-n3c(=O)cc(C(F)(F)F)n(C)c3=O)c(F)cc(Br)c2o1 [Compound 101] | – | 70 | 65 | 100 | 100 | 100 | 95 | 100 | 80 | 80 | 100 | 80 | 100 | 65 | 100 | 80 | 60 | 50 | – | – |
